Series [1] can be described thus: Population PK model estimate of steady-state parent MT Cmax in bvFTD trial patients. The conditions noted are these: human, plasma, oral, 8 mg/day, read-out: Cmax,ss cut-off, upper limit of the lowest 35% group. Format: in vivo. Here is the method: (§1) The population PK model described above was used to estimate Cmax of parent MT in the patients in the bvFTD study. As with the AD trials described above, the median value at each dose was taken as a threshold for dividing patients into “High Cmax” and “Low Cmax” groups.
The cut-off that defined the upper limit of the lowest 35% group (corresponding to the percentage of patients with plasma levels below the validated limit of quantitation in Day 1) was 0.346 ng/ml for the bvFTD population.
As for AD (see Example 10) the remainder with Day 1 plasma levels within the validated range of quantitation at the 8 mg/day dose were distributed in 3 groups having approximately equal numbers (22% each; see Table EX7 below).

The test system of series [2] is bvFTD patients. Kind of series: Phase 3 bvFTD trial: clinical and MRI endpoints by Cmax,ss group. Format: in vivo, human.
From the text: The trial design for the Phase 3 trial of LMTM in behavioural variant frontotemporal dementia (bvFTD) is described in Examples 3 to 10 of WO2018/041739, which Examples also discuss those results. The disclosure of those Examples is specifically incorporated herein by reference.
as §1
However the decline in the Cmax high group was much reduced (−6.1±1.8). All efficacy analyses are based on an MMRM approach
Alternative efficacy analyses were performed in which the group of patients with minimal systemic exposure to the drug was used as a proxy for placebo. These are shown in the Table EX8 below and illustrated in FIG. 19.
In addition, a linear term was added to permit trends occurring at high concentrations to be included in the model using mean decline occurring at the 200 mg/day dose.

Broadly, the Cmax is the highest concentration seen after dosing. In the case of `CN(C)c1ccc2c(c1)Sc1cc(N(C)C)ccc1N2` [LMTM, leuco-methylthioninium bis(hydromethanesulfonate)], in series [1], the Cmax is 0.346 ng/mL. In addition, the “Lower limiting plasma concentration required for treatment response” value in series [2] (bvFTD patients receiving 8 mg/day, expanded Hill equation) worked out at 0.29 ng/mL. The “Dose-response for high dose monotherapy on functional FAQ scale” value in series [2] (bvFTD, 200 mg/day vs 8 mg/day) is “inverse dose-response”. Further, the “Predicted dose corresponding to the maximum limiting concentration” value in series [2] (bvFTD, whole brain volume over 52 weeks) was 301 mg/day. Further, the “Maximum limiting concentration at which the treatment effect was lost” value in series [2] (bvFTD, whole brain volume over 52 weeks, expanded Hill equation) amounted to 13.57 ng/mL.

(Values after patent US12263175B2, “Optimised dosage of diaminophenothiazines in populations” (WisTa Laboratories Ltd., priority 2018, dated 2025).)
